Results reported in patent publication US5155107A, “17β-substituted-4-aza-5α-androstan-3-one derivatives and process for their preparation” (Farmitalia Carlo Erba, priority 1990, dated 1992).
Like-named read-outs stand apart in the source and are kept apart here.

Key:
[1] = target: T1, cytoplasmic androgen (rat prostate) receptors (Rattus norvegicus, UniProt P15207); experiment: Rat prostate androgen receptor binding (inhibition of 3H-DHT binding); set-up: species or system Sprague-Dawley rats
T1 construct: Prostatic tissue, obtained from adrenalectomized and castrated Sprague-Dawley rats; from tissue; host or cells: prostate cytosol of adrenalectomized and castrated Sprague-Dawley rats
T1 sequence (P15207 1-902): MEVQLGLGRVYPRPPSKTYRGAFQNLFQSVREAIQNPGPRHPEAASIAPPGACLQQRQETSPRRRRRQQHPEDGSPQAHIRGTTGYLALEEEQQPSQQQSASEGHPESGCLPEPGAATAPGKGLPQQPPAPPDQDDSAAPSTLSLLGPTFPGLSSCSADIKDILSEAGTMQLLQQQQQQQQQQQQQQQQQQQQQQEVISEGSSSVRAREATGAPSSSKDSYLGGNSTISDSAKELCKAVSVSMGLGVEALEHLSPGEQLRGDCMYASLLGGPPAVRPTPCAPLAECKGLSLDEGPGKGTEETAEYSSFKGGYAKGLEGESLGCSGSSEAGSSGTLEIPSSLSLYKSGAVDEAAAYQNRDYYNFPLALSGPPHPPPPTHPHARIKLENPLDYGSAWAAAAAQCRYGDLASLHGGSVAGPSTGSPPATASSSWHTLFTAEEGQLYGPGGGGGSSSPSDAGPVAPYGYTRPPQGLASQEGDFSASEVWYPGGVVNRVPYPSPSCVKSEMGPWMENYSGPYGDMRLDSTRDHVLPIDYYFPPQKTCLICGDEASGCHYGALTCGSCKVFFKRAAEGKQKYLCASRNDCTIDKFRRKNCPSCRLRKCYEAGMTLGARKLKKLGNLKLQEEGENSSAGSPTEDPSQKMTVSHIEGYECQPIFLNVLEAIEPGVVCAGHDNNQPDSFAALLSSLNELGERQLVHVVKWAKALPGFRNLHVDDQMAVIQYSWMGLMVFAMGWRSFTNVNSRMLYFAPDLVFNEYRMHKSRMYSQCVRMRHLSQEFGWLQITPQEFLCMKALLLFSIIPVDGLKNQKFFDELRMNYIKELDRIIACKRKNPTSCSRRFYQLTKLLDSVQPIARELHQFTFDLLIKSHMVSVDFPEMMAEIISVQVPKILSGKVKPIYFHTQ
Method: For their use in androgen- dependent conditions, the 5α-reductase inhibitors, should have a very low intrinsic androgenic activity, which can be shown by the binding affinity to the androgen receptor.
A low binding affinity to the androgen receptor is therefore desirable in a 5α-reductase inhibitor for use in the treatment of androgen dependent conditions.
Binding affinity to cytoplasmic androgen (rat prostate) receptors was determined by standard dextran-coated absorption technique (Raynaud J. P. et al., J. Steroid. Biochem. 6: 615-622, 1975).
Prostatic tissue, obtained from adrenalectomized and castrated Sprague-Dawley rats, was homogenized in 10 mM Tris HCl pH 7.4, containing 1.5 mM EDTA and 1 mM dithiothreitol in motor driven tissue grinders. The homogenate was centrifuged at 10,000×g for 1 h at 4° C.
Aliquots of cytosol 00.2 ml) were incubated for 2 hours at 0° C. with various concentrations of the test compounds, in duplicate, and a fixed amount of ^3 H-dihydrotesterone (DHT) final concentration 1 nM in 0.4 ml of incubation volume).
Then, free radioactivity was absorbed on 0.2 ml of dextran-coated charcoal suspension and after centrifugation at 1,500×g for 10 min., the bound radioactivity in the supernatant was determined by liquid scintillation in Rialuma.
The concentration of each compound required to reduce specific ^3 H-DHT binding by 50% (IC50) was determined from a plot of bound radioactivity versus log of competitor concentration.
In the above test the Compound 1 of the present invention was compared with the same above identified reference compound 4-MA and the obtained results are reported in the following Table 3.

[2] = system: 5α-reductase of rat prostate; experiment: Inhibition of prostate growth stimulated by testosterone propionate in castrated rats; type: in vivo; conditions: for Inhibition of prostate growth stimulated by testosterone propionate: 7 days, testosterone propionate 0.3 mg/kg/day s.c.
Method: The compounds of the invention were also tested for their in vivo potency in inhibiting 5α-reductase of rat prostate, according to the following procedure.
Prepuberal 21-day old male rat were castrated via scrotal incision in light ether anaesthesia.
Starting on the seventh day after orchiectomy, the rats were treated with testosterone propionate (0.3 mg/kg/day subcutaneously) for 7 consecutive days to stimulate prostate growth. The 5α-reductase inhibitors were given orally at various doses once daily for 7 days, together with the standard dose of testosterone propionate.
Thus, for example, in the above test the compound 1 of the present invention was compared with the well known 5α-reductase inhibitor 4-methyl-17β-N,N-diethyl-carbamoyl-4-methyl-4-aza-5α-androstan- 3-one, identified as 4-MA and described, e.g., in U.S. Pat. No. 4,377,584) giving the results reported in the following Table 2.

[3] = target: T2, 5α-reductase (particulate fraction of human benign prostatic hypertrophy tissue) (Homo sapiens, UniProt P31213); experiment: Inhibition of prostatic 5α-reductase in vitro; type: biochemical
T2 construct: homogenates of human benign prostatic hypertrophy tissue as the enzyme source; from tissue; host or cells: human benign prostatic hypertrophy tissue, 40,000×g particulate fraction (nuclei, microsomes, mitochondria)
T2 sequence (P31213 1-254): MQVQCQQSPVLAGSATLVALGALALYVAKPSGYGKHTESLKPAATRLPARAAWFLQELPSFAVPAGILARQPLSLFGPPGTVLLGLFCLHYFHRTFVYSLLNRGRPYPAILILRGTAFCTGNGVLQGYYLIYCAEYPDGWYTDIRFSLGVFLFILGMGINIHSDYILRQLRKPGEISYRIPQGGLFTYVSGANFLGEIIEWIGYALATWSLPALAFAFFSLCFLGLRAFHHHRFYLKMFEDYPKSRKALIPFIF
Method: For example, the inhibitory effect of the compounds of the invention on 5α-reductase was determined in vitro in comparison with progesterone taken as the reference compound, according to the procedure reported herebelow.
Inhibition of 5α-reductase was evaluated using the particulate fraction (containing nuclei, microsomes and mitochondria) from homogenates of human benign prostatic hypertrophy tissue as the enzyme source. The particulate fraction was prepared centrifuging prostate homogenate at 40,000×g. The resulting pellet, washed several times, was resuspended in buffer and stored at -80° C. in aliquots containing ≈10 mg protein/ml.
The assay for 5α-reductase was done in a final volume of 0.5 ml, containing 1 mM dithiothreitol, 40 mM TRIS-HCl buffer pH 5.0, 5 mM NADPH, 1 μM [4-^14 C]testosterone, 0.3 mg of prostate particulate fraction and various concentrations of the inhibitors. After 30 min incubation at 37° C. the reaction was terminated by addition of 1.5 ml diethyl ether and the organic phase was separated, evaporated under N2 and resuspended in ethyl acetate. Testosterone metabolites in this extract were separated in TLC on silica gel F 254 plates (Merck) using chloroform, acetone and n-hexane (2:1:2) as developing solvent system. Radioactivity on the plate was scanned and analyzed from quantitative plots printed by a TLC-analyzer (Berthold). The fractional 5α-reduction of testosterone was calculated by relating the ^14 C-radioactivity in the 5α-reduced metabolites (5α-dihydrotestosterone, 3α- and 3β-androstanediols) regions to the total radioactivity in the testosterone and 5α-reduced metabolites regions.
The concentration of each compound required to reduce control 5α-reductase by 50% (IC50) was determined by plotting % inhibition versus log of inhibitor concentration.
As an example, the potency of three representative compounds of the invention, namely 4-methyl-17β-[N-isopropyl-N-(N-isopropylcarbamoyl)carbamoyl]-4-aza-5α-androstan-3-one (Compound 1), 4-methyl-17β-[N-cyclohexyl-N-(N-cyclohexylcarbamoyl) carbamoyl-4-aza-5α-androstan-3-one (Compound 11) and 4-methyl-17β-[N-isopropyl-N-(N-isopropylthiocarbamoyl)carbamoyl-4-aza-5α-androstan-3-one (Compound 39) are reported in Table 1 in comparison with progesterone.

[4] = human BPH particulate fraction, 1 μM [4-14C]testosterone, pH 5.0, 30 min, 37° C., read-out: Inhibition of prostatic 5α-reductase IC50

CC(C)NC(=O)N(C(=O)[C@H]1CC[C@H]2[C@@H]3CC[C@H]4N(C)C(=O)CC[C@]4(C)[C@H]3CC[C@]12C)C(C)C [Compound 1, 4-methyl-17β-[N-isopropyl-N-(N-isopropylcarbamoyl)carbamoyl]-4-aza-5α-androstan-3-one]
IC50 [1]: 150000 nM | selectivity versus androgen receptor binding ([1]; Compound 1 versus reference compound 4-MA): more selective than the reference compound 4-MA | displacement of DHT from the prostatic androgen receptor ([1]; Table 3): displaces DHT from the prostatic androgen receptor only at a very high concentration | Inhibition of prostate growth stimulated by testosterone propionate ([2]; 3 mg/kg/day p.o.): 33% | Inhibition of prostate growth stimulated by testosterone propionate ([2]; 10 mg/kg/day p.o.): 55% | IC50 [3, 4]: 55 nM

CC(=O)[C@H]1CC[C@H]2[C@@H]3CCC4=CC(=O)CC[C@]4(C)[C@H]3CC[C@]12C [Progesterone, progesterone, reference compound]
IC50 [3]: 1980 nM

CN1C(=O)CC[C@]2(C)[C@H]3CC[C@]4(C)[C@@H](C(=O)N(C(=O)NC5CCCCC5)C5CCCCC5)CC[C@H]4[C@@H]3CC[C@@H]12 [Compound 11, 4-methyl-17β-[N-cyclohexyl-N-(N-cyclohexylcarbamoyl)carbamoyl]-4-aza-5α-androstan-3-one]
IC50 [3, 4]: 41 nM

CC(C)NC(=S)N(C(=O)[C@H]1CC[C@H]2[C@@H]3CC[C@H]4N(C)C(=O)CC[C@]4(C)[C@H]3CC[C@]12C)C(C)C [Compound 39, 4-methyl-17β-[N-isopropyl-N-(N-isopropylthiocarbamoyl)carbamoyl]-4-aza-5α-androstan-3-one]
IC50 [3, 4]: 11 nM

CCN(CC)C(=O)[C@H]1CC[C@H]2[C@@H]3CC[C@H]4N(C)C(=O)CC[C@]4(C)[C@H]3CC[C@]12C [Compound 4-MA, 4-methyl-17β-N,N-diethyl-carbamoyl-4-methyl-4-aza-5α-androstan-3-one]
displaces DHT at a concentration lower than Compound 1 (fold) ([1]; 4-MA versus Compound 1): 60 times lower | IC50 ([1]; rat prostate cytosol, 1 nM 3H-DHT, 2 hours, 0° C., read-out: Inhibition of DHT binding IC50): 2500 nM | Inhibition of prostate growth stimulated by testosterone propionate ([2]; 3 mg/kg/day p.o.): 1% | Inhibition of prostate growth stimulated by testosterone propionate ([2]; 10 mg/kg/day p.o.): 0% | Inhibition of prostate growth stimulated by testosterone propionate ([2]; 30 mg/kg/day p.o.): 49% | in vivo effect on the hypertrophic response to testosterone propionate ([2]; same dose, 10 mg/kg/day oral): completely ineffective
